Data reported in paper PMC8995034 (Science Translational Medicine, 2022).
Values joined by “and” are separate entries in the source; they are usually repeats but may differ in a detail not shown here. Identical values can stand only once. Like-named read-outs stand apart in the source and are kept apart here.

Columns and labels:
[1] = tested on: SARS-CoV-2 nLUC; experiment: microbe, parasite or virus in culture; assay type: cell-based; details: for inhibition at 0.00152 µM: drug 0.00152 µM; for inhibition at 0.00457 µM: drug 0.00457 µM; for inhibition at 0.01372 µM: drug 0.01372 µM; for inhibition at 0.04115 µM: drug 0.04115 µM; for inhibition at 0.37037 µM: drug 0.37037 µM; for inhibition at 3.33333 µM: drug 3.33333 µM; for Relative Light Units (RLU) (FigS1A): replicate wells
[2] = tested on: SARS-CoV-2 fLUC; experiment: microbe, parasite or virus in culture; assay type: cell-based; details: for EC50: Severe acute respiratory syndrome coronavirus 2, NHBE, 24 h, read-out: EC50, inhibition of SARS-CoV-2 replication in NHBE cultures; for % Inhibition (Fig1F): duplicate values; for Relative Light Units (RLU) (FigS1C): duplicates
[3] = tested on: MERS-CoV; experiment: microbe, parasite or virus in culture; assay type: cell-based; details: Middle East respiratory syndrome-related coronavirus, Calu-3 2B4, read-out: EC50 against MERS-CoV
[4] = in vivo; details: BALB/c, mouse, po, 20 mg/kg
[5] = in vitro; details: human, % Cytotoxicity (Fig1E)
[6] = tested on: SARS-CoV-2; assay type: cell-based
[7] = tested on: alpha, beta, and gamma SARS-CoV-2 VOCs; details: cited from earlier work
[8] = African green monkeys; cited from earlier work
[9] = in vivo; cited from earlier work
[10] = Severe acute respiratory syndrome coronavirus 2, read-out: % Inhibition (Fig1D)
[11] = Severe acute respiratory syndrome coronavirus 2, drug 10 µM, read-out: % Inhibition (Fig1D)
[12] = Severe acute respiratory syndrome coronavirus 2, read-out: Average EC50 (nM) A549-hACE2
[13] = Severe acute respiratory syndrome coronavirus 2, read-out: average half-maximum effective concentration (EC50), SARS-CoV-2 nLUC replication
[14] = concentration 0.222222 (unit not given)
[15] = concentration 0.666667 (unit not given)
[16] = concentration 2 (unit not given)

With `N#C[C@@]1(c2ccc3c(N)ncnn23)O[C@H](CO)[C@@H](O)[C@H]1O` [GS-441524, reference compound] the inhibition at 0.00152 µM [1, 10] was 5.76%, the inhibition at 0.00457 µM [1, 10] was 7.88% and the inhibition at 0.01372 µM [1, 10] was 0.08%. For the same molecule, the inhibition at 0.04115 µM [1, 10] was 5.14%, the inhibition at 0.37037 µM [1, 10] was -4.48% and the inhibition at 3.33333 µM [1, 10] was 42%. It also gave an inhibition at 10 µM [1, 11] of 99%, an EC50 [1, 12] of 3370 nM and an EC50 [1, 13] of 3400 nM. The EC50 [2] was 2.45 µM, the “% Inhibition (Fig1F)” value ([2]; concentration 0.205761 (unit not given)) was 16.6269% and 13.9332% and the “% Inhibition (Fig1F)” value ([2]; concentration 0.617284 (unit not given)) was 25.1934% and 32.3249%. For the same molecule, the “% Inhibition (Fig1F)” value ([2]; concentration 1.85185 (unit not given)) was 47.2673% and 45.1609%, the “% Inhibition (Fig1F)” value ([2]; concentration 5.55556 (unit not given)) was 89.9387% and 91.061% and the “% Inhibition (Fig1F)” value ([2]; concentration 16.6667 (unit not given)) was 99.9354% and 99.9435%. For the same molecule, the “% Inhibition (Fig1F)” value ([2]; concentration 50 (unit not given)) was 99.9909% and 99.9933%, the EC50 [3] was 2.1 µM and the half-life [4] was ~1 h. It also gave a cytotoxicity ([5]; drug 0.00152 µM) of 4.91%, a cytotoxicity ([5]; drug 0.00457 µM) of 3.11% and a cytotoxicity ([5]; drug 0.01372 µM) of 6.91%. For the same molecule, the cytotoxicity ([5]; drug 0.04115 µM) was 2.96%, the cytotoxicity ([5]; drug 0.12346 µM) was 5.66% and the cytotoxicity ([5]; drug 0.37037 µM) was 7.63%. The cytotoxicity ([5]; drug 3.33333 µM) was 9.21% and the cytotoxicity ([5]; drug 10 µM) was 7.34%.

Molecule `CC(C)C(=O)OCC1OC(C#N)(c2ccc3c(N)ncnn23)C(OC(=O)C(C)C)C1OC(=O)C(C)C` (centres unmarked) [GS-621763] has an inhibition at 0.00152 µM [1, 10] of -15.2%, an inhibition at 0.00457 µM [1, 10] of -13.7% and an inhibition at 0.01372 µM [1, 10] of -12.3%. It also gave an inhibition at 0.04115 µM [1, 10] of -15.7%, an inhibition at 0.12346 µM ([1]; Severe acute respiratory syndrome coronavirus 2, drug 0.12346 µM, read-out: % Inhibition (Fig1D)) of -15.4% and an inhibition at 0.37037 µM [1, 10] of -23%. For the same molecule, the inhibition at 1.11111 µM ([1]; Severe acute respiratory syndrome coronavirus 2, drug 1.11111 µM, read-out: % Inhibition (Fig1D)) was -42%, the inhibition at 3.33333 µM [1, 10] was 94.8% and the inhibition at 10 µM [1, 11] was 99.3%. The EC50 [1, 12] was 2800 nM, the EC50 [1, 13] was 2800 nM and the “Relative Light Units (RLU) (FigS1A)” value ([1]; drug 0.004 µM) was 1.49E+08 RLU and 1.35E+08 RLU and 1.13E+08 RLU. The “Relative Light Units (RLU) (FigS1A)” value ([1]; drug 0.04 µM) was 1.45E+08 RLU and 1.37E+08 RLU and 1.12E+08 RLU, the “Relative Light Units (RLU) (FigS1A)” value ([1]; drug 0.12 µM) was 1.47E+08 RLU and 1.37E+08 RLU and 1.32E+08 RLU and the “Relative Light Units (RLU) (FigS1A)” value ([1]; drug 0.37 µM) was 1.64E+08 RLU and 1.46E+08 RLU and 1.36E+08 RLU. The “Relative Light Units (RLU) (FigS1A)” value ([1]; drug 1.1 µM) was 1.69E+08 RLU and 1.76E+08 RLU and 1.62E+08 RLU, the “Relative Light Units (RLU) (FigS1A)” value ([1]; drug 3.3 µM) was 6190000 RLU and 6040000 RLU and 1.36E+07 RLU and the “Relative Light Units (RLU) (FigS1A)” value ([1]; drug 10 µM) was 708000 RLU and 801000 RLU and 866000 RLU. The EC50 [2] was 0.125 µM, the “% Inhibition (Fig1F)” value [2, 14] was 65.5149% and 78.3611% and the “% Inhibition (Fig1F)” value [2, 15] was 97.4321% and 98.0439%. For the same molecule, the “% Inhibition (Fig1F)” value [2, 16] was 99.8762% and 99.9108%, the “Relative Light Units (RLU) (FigS1C)” value ([2]; drug concentration 0.00823) was 7706513 RLU and 5857613 RLU and the “Relative Light Units (RLU) (FigS1C)” value ([2]; drug concentration 0.024691) was 7329653 RLU and 5548473 RLU. For the same molecule, the “Relative Light Units (RLU) (FigS1C)” value ([2]; drug concentration 0.074074) was 5615903 RLU and 3756783 RLU, the “Relative Light Units (RLU) (FigS1C)” value ([2]; drug concentration 0.222222) was 2451403 RLU and 1538223 RLU and the “Relative Light Units (RLU) (FigS1C)” value ([2]; drug concentration 0.666667) was 182543 RLU and 139053 RLU. For the same molecule, the “Relative Light Units (RLU) (FigS1C)” value ([2]; drug concentration 2) was 8803.33 RLU and 6343.33 RLU, the “antiviral activity / infectious virus titers in HAE cell cultures” value [6] was “confirmed the antiviral activity” and the “antiviral activity / infectious virus titers in HAE cell cultures” value ([6]; listed as GS621763) was “reduces viral titers”. For the same molecule, the EC50 [3] was 0.74 µM, the “antiviral activity against alpha, beta, and gamma SARS-CoV-2 VOCs” value [7] was “potently antiviral” and the cytotoxicity ([5]; drug 0.00152 µM) was 5.08%. It also gave a cytotoxicity ([5]; drug 0.00457 µM) of 2.88%, a cytotoxicity ([5]; drug 0.01372 µM) of 4.34% and a cytotoxicity ([5]; drug 0.04115 µM) of 5.67%. For the same molecule, the cytotoxicity ([5]; drug 0.12346 µM) was 6.43%, the cytotoxicity ([5]; drug 0.37037 µM) was 7.02% and the cytotoxicity ([5]; drug 1.11111 µM) was -1.19%. For the same molecule, the cytotoxicity ([5]; drug 3.33333 µM) was 1.11%, the cytotoxicity ([5]; drug 10 µM) was 4.64% and the “intact ester in plasma” value [8] was “no or very minimal intact ester observed in plasma”. For the same molecule, the “intact ester in plasma” value [9] was “no or very minimal intact ester observed in plasma”.

With `CCC(CC)COC(=O)[C@H](C)N[P@](=O)(OC[C@H]1O[C@@](C#N)(c2ccc3c(N)ncnn23)[C@H](O)[C@@H]1O)Oc1ccccc1` [RDV, remdesivir, reference compound] the EC50 [1, 12] was 294 nM, the EC50 [1, 13] was 290 nM and the EC50 [2] was 0.0371 µM. It also gave an EC50 [3] of 0.16 µM.

In the case of `CCC(CC)COC(=O)C(C)NP(=O)(OCC1OC(C#N)(c2ccc3c(N)ncnn23)C(O)C1O)Oc1ccccc1` (centres unmarked) [RDV (GS-5734)], the “% Inhibition (Fig1F)” value ([2]; concentration 0.024691 (unit not given)) is reported as 24.385% and 40.4776%, the “% Inhibition (Fig1F)” value ([2]; concentration 0.074074 (unit not given)) is reported as 79.3894% and 81.2356% and the “% Inhibition (Fig1F)” value [2, 14] is reported as 99.4779% and 99.6549%. The “% Inhibition (Fig1F)” value [2, 15] was 99.9727% and 99.9783% and the “% Inhibition (Fig1F)” value [2, 16] was 99.9953% and 99.9938%.

With `CC(C)C(=O)OC[C@H]1O[C@@H](n2ccc(NO)nc2=O)[C@H](O)[C@@H]1O` [MPV, molnupiravir, reference compound] the “NHC plasma exposures, dose proportionality” value (MPV 30 mg/kg or 100 mg/kg oral, BID) was “dose proportional increases in NHC plasma exposures”.

With `O=c1nc(NO)ccn1[C@@H]1O[C@H](CO)[C@@H](O)[C@H]1O` [NHC] the “Plasma NHC, FigS5” value (Group 1, time 12.5, individual mice, oral MPV) was 48.2 μM and 56.9 μM (2×) and 55.4 μM.
